Earlier results on ten molecules are cited in PMC11243490, “Enzymatic Fructosylation of Phenolic Compounds: A New Alternative for the Development of Antidiabetic Drugs” (Molecules, 2024).

In general, Solubility refers to the dissolved amount per volume that the medium holds.

In one data set the test system is CYP2C9. Also noted: method as in PMID 27518169. The settings on record: human liver microsomes. On the technique in general: Liver microsomes are vesicles of endoplasmic reticulum, rich in cytochrome P450 enzymes.
Another data set deals with CYP1A2. Details: method as in PMID 27518169. The settings on record: human liver microsomes.
Details of data set [1]: method as in PMID 30638505, PMID 33992405, doi:10.1016/j.imu.2022.100880. The settings on record: reported properties.
Details of data set [2]: method as in PMID 30638505, PMID 33992405, doi:10.1016/j.imu.2022.100880. The settings on record: reported properties. This is another data set of the same source.
For data set [3] the following is noted: reported properties.
On the set-up of data set [4]: method as in PMID 30638505, PMID 33992405, doi:10.1016/j.imu.2022.100880. The settings on record: reported properties. This is another data set of the same source.
The subject of data set [5] is EGFR, SRC, ESR1, and HSP90AA1 diabetic proteins. Details: method as in PMID 37754241. The settings on record: range over EGFR.
The subject of data set [6] is key proteins in type 2 diabetes. Details: method as in PMID 32258479. The settings on record: strongest interactions.

≈ marks a conversion by molar mass, not a printed value.

For the molecule `O=C(O[C@@H]1Cc2c(O)cc(O)cc2O[C@@H]1c1cc(O)c(O)c(O)c1)c1cc(O)c(O)c(O)c1` [EGCG, epigallocatechin gallate], in the data set with CYP2C9, the “inhibition of CYP2C9” value is on record as 7.60 µM. The “inhibition of CYP1A2” value with CYP1A2 is reported as 8.93 µM.
For the molecule `COc1cc(C=CC(=O)O)ccc1O` [FA, 4-hydroxy-3-methoxycinnamic acid], the “ABTS % Free Radical Scavenging Activity” value in data set [1] is 90.69 ± 0.14%. Further, the “NO % Free Radical Scavenging Activity” value in data set [2] is 22.21 ± 1.39%. The “DPPH % Free Radical Scavenging Activity” value in data set [3] is 70.04 ± 2.3%.
Consider `COc1cc(/C=C/C(=O)OC2(CO)OCC(O)C(O)C2O)ccc1O` [MFF, β-D-Fructopyranosyl-β-(2→6)-ferulate], for which, in data set [4], the Solubility was 8690 ± 450 µg/mL (≈ 24.4 mM). The “ABTS % Free Radical Scavenging Activity” value in data set [1] is 90.95 ± 0.18%. Also, the “NO % Free Radical Scavenging Activity” value in data set [2] is recorded as 3.27 ± 1.02%. In data set [3], the “DPPH % Free Radical Scavenging Activity” value is listed as 17.16 ± 0.81%.
As for `O=c1c(-c2ccc(O)cc2)coc2c(C3OC(COC4(CO)OC(CO)C(O)C4O)C(O)C(O)C3O)c(O)ccc12` [MFP, β-D-fructofuranosyl-β-(2→6)-puerarin], the Solubility in data set [4] was 16200 ± 1700 µg/mL (≈ 28 mM). Further, the “DPPH % Free Radical Scavenging Activity” value in data set [3] was 26.2 ± 1.3%.
For `O=C(CCc1ccc(O)cc1)c1c(O)cc(O)cc1OC1OC(COC2(CO)OC(CO)C(O)C2O)C(O)C(O)C1O` [MFPh, β-D-fructofuranosyl-β-(2→6)-phlorizin], the Solubility in data set [4] is 30570 ± 100 µg/mL (≈ 51.1 mM). For the same molecule, the “DPPH % Free Radical Scavenging Activity” value in data set [3] is recorded as 44.56 ± 8.4%.
With `O=C(CCc1ccc(O)cc1)c1c(O)cc(O)cc1O[C@@H]1O[C@H](CO)[C@@H](O)[C@H](O)[C@H]1O` [PH, phloretin-2′-β-D-glucopyranoside], the Solubility in data set [4] was 1930 ± 30 µg/mL (≈ 4.42 mM). Also, the “DPPH % Free Radical Scavenging Activity” value in data set [3] is 62.13 ± 1.8%.
As to `O=c1c(-c2ccc(O)cc2)coc2c([C@@H]3O[C@H](CO)[C@@H](O)[C@H](O)[C@H]3O)c(O)ccc12` [PU, daidzein-8-C-glucoside], the Solubility in data set [4] was 700 ± 90 µg/mL (≈ 1.68 mM). For the same molecule, the “DPPH % Free Radical Scavenging Activity” value in data set [3] is recorded as 33.3%.
As to `CCCCCc1cc(O)c2c(c1)OC(C)(C)c1ccc(C)cc1-2` [cannabinol], in data set [5], the free binding energy is -7.44 to -6.38 kcal/mol.
For the molecule `OC[C@H]1O[C@@H](Oc2cc3c(O)cc(O)cc3[o+]c2-c2ccc(O)c(O)c2)[C@H](O)[C@@H](O)[C@@H]1O` [cyanidin 3-glucoside], the free binding energies in data set [6] is on record as −7.3 to −6.10.
In the case of `OC[C@H]1O[C@@H](Oc2cc3c(O)cc(O)cc3[o+]c2-c2cc(O)c(O)c(O)c2)[C@H](O)[C@@H](O)[C@@H]1O` [delphinidin 3-glucoside], the free binding energies in data set [6] is recorded as −7.3 to −6.10.
